The values that follow are results of earlier work, collected in patent US20230233510A1, “CYSTEINE PROTEASE INHIBITORS FOR USE IN THE PREVENTION AND/OR TREATMENT OF CORONAVIRUS” (ALBERT-LUDWIGS-UNIVERSITÄT FREIBURG, priority 2020, published 2023).

For one series, the system named is SARS-CoV. The conditions noted are these: HeLa cells expressing ACE2 and TMPRSS2.
Series [1] has as its system human coronavirus NL63 (HCoV-NL63). The conditions noted are these: HeLa cells expressing ACE2 and TMPRSS2.

`CN(C)C(=O)COC(=O)Cc1ccc(OC(=O)c2ccc(NC(=N)N)cc2)cc1` [camostat, (4-{2-[2-(Dimethylamino)-2-oxoethoxy]-2-oxoethyl}phenyl)(4-carbamimidamidobenzoate)]: the block of infection result (with SARS-CoV; in series [1]) was “partially blocked infection” in each case.
